Data as given in patent US9675606B2, “2-amino-3-(imidazol-2-yl)-pyridin-4-one derivatives and their use as VEGF receptor kinase inhibitors” (SANOFI, priority 2011, dated 2017).

Each molecule was assayed against T1, VEGFR-3 (Homo sapiens, UniProt P35916) (assay: Effect of compounds on VEGFR-3 auto-phosphorylation in HEK cells (ELISA)). Conditions: autophosphorylation of VEGFR-3-Flag overexpressed in HEK293T cells, 1 h incubation with compound.
T1 construct: expressed in transfected cells; host or cells: HEK293T cells, transient transfection with Fugene-6
Format: cell-based
Procedure: Effect of Compounds on VEGFR-3 Auto-Phosphorylation in HEK Cells
The effects of compounds in blocking VEGFR-3 autophosphorylation were quatified by ELISA after Overexpression of VEGFR-3 in HEK cells. HEK293T cells were maintained in MEM supplemented with 10% foetal calf serum (FCS) and glutamine. The day before transfection, […] were seeded on 48 wells plates and transfection was done using Fugene-6 (Roche, Basel). Fugene-6 (18 μL) was preincubated for 5 min with 282 μl of optimem. Then 3 μg DNA corresponding VFGR-3-Flag was added and left at room temperature during 10 min before distributing 200 μl on HEK cells. After 24 h, the medium was removed and replaced by a new one without serum and incubated for 1 h with different concentrations (ranging from 3 to 1000 nM) of each compound. After additional 30 min incubation with Orthovanadate (0.4 mM), cells were washed with cold PBS supplemented by orthovanadate and then lysed with 300 μl of RIPA buffer. Lysates were then centrifuged during 10 min at 10000 g. Supernatants (75 μl) were distributed in duplicate on 96 well plate precoated with the anti-Flag and left during 1 hour at room temperature. After 3 washes with TBS buffer containing 0.5% tween 20, the anti-phospho-tyrosine conjugated to the HRP was added and incubated for 1 hour at room temperature. Wells were then washed 3 times with TBS buffer containing tween 20 (0.5%) and MgCl2 (2 mM). The reaction was stopped with 50 μl of H2SO4 (2 N) and the signal was read at Envision at 485 and 530.
The concentration-response curves were analyzed with internal software Biost@t-SPEED v2.0 using the 4-parameter logistic model according to Ratkovsky and Reedy (Ratkovsky D A., Reedy T J. Choosing near-linear parameters in the four parameters logistic model radioligands and related assays. Biometrics 1986 September 42(3):575-82.)

T1 sequence (P35916 25-1363, species assumed): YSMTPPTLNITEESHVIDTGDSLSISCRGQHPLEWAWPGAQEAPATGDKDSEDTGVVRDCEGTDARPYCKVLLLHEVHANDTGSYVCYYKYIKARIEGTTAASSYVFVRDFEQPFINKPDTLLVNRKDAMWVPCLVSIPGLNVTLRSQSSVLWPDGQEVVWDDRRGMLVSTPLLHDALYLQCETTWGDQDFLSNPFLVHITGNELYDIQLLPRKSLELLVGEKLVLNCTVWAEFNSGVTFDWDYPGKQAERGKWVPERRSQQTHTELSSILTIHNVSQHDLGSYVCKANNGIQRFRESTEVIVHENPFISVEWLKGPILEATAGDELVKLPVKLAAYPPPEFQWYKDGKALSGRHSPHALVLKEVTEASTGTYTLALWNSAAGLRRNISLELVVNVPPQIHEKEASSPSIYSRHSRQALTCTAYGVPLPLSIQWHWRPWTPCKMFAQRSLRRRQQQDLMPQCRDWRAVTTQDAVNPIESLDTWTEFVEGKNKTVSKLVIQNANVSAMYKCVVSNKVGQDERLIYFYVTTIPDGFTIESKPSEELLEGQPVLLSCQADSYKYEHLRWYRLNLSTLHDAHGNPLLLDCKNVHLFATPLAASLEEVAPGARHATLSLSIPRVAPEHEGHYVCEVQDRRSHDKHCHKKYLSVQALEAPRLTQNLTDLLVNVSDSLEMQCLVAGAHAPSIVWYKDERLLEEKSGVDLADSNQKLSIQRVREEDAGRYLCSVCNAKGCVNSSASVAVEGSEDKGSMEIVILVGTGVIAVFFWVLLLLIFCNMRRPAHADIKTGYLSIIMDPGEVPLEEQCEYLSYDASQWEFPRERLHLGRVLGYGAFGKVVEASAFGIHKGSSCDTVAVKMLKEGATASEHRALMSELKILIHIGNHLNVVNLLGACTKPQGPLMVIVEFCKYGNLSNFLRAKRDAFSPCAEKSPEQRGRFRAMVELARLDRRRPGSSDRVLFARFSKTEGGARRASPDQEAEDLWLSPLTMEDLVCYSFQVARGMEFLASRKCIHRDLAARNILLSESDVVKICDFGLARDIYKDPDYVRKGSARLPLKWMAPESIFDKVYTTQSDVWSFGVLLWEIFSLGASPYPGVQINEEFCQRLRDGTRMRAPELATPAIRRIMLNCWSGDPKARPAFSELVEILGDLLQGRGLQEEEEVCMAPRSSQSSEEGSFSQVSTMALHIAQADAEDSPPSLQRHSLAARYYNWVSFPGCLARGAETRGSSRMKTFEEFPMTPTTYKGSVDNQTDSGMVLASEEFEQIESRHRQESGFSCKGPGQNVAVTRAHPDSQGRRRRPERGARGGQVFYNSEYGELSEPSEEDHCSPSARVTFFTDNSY

Row | SMILES | IC50 [nM]
1 | CCn1c(N)c(-c2ncc[nH]2)c(=O)c2ccc(C#CC(C)(O)CO)nc21 (racemic) [Compound 3, 2-Amino-7-(3,4-dihydroxy-3-methyl-but-1-ynyl)-1-ethyl-3-(1H-imidazol-2-yl)-1H-[1,8]naphthyridin-4-one] | 125
2 | CCC(O)C#Cc1ccc2c(=O)c(-c3ncc[nH]3)c(N)n(CC3CC3)c2n1 (racemic) [Compound 6, 2-Amino-1-(cyclopropylmethyl)-7-(3-hydroxypent-1-yn-1-yl)-3-(H-imidazol-2-yl)-1,8-naphthyridin-4(1H)-one] | 85
3 | CCC(O)C#Cc1ccc2c(=O)c(-c3ncc[nH]3)c(N)n(C3CCCC3)c2n1 (racemic) [Compound 10, 2-Amino-1-cyclopentyl-7-(3-hydroxypent-1-yn-1-yl)-3-(1H-imidazol-2-yl)-1,8-naphthyridin-4(1H)-one] | 37
4 | CCC(O)C#Cc1ccc2c(=O)c(-c3ncc[nH]3)c(N)n(CCCOC)c2n1 (racemic) [Compound 11, 2-Amino-7-(3-hydroxypent-1-yn-1-yl)-3-(1H-imidazol-2-yl)-1-(3-methoxypropyl)-1,8-naphthyridin-4(1H)-one] | 334
5 | CCC(O)C#Cc1ccc2c(=O)c(-c3ncc[nH]3)c(N)n(CCOC)c2n1 (racemic) [Compound 12, 2-Amino-7-(3-hydroxypent-1-yn-1-yl)-3-(1H-imidazol-2-yl)-1-(2-methoxyethyl)-1,8-naphthyridin-4(1H)-one] | 166
6 | CCn1c(N)c(-c2ncc[nH]2)c(=O)c2ccc(C#CC(O)(c3ccccc3)C(F)(F)F)nc21 (racemic) [Compound 19, 2-Amino-1-ethyl-3-(1H-imidazol-2-yl)-7-(4,4,4-trifluoro-3-hydroxy-3-phenylbut-1-yn-1-yl)-1,8-naphthyridin-4(1H)-one] | 14
7 | CCn1c(N)c(-c2ncc[nH]2)c(=O)c2ccc(C#C[C@@](C)(O)COC)nc21 [Compound 1, 2-Amino-1-ethyl-7-((3R)-3-hydroxy-4-methoxy-3-methyl-but-1-ynyl)-3-(1H-imidazol-2-yl)-1H-[1,8]naphthyridin-4-one] | 25
8 | CCCn1c(N)c(-c2ncc[nH]2)c(=O)c2ccc(C#C[C@@](C)(O)COC)nc21 [Compound 2, 2-Amino-1-propyl-7-((3R)-3-hydroxy-4-methoxy-3-methyl-but-1-ynyl)-3-(1H-imidazol-2-yl)-1H-[1,8]naphthyridin-4-one] | 18
9 | CCn1c(N)c(-c2ncc[nH]2)c(=O)c2ccc(C#C[C@@](C)(O)COC)cc21 [Compound 7, 2-Amino-1-ethyl-7-[(3R)-3-hydroxy-4-methoxy-3-methylbut-1-yn-1-yl]-3-(1H-imidazol-2-yl)quinolin-4(1H)-one] | 19
10 | CCn1c(N)c(-c2ncc[nH]2)c(=O)c2ccc(C#CC3(O)CCCC3)nc21 [Compound 14, 2-Amino-1-ethyl-7-[(1-hydroxycyclopentyl)ethynyl]-3-(1H-imidazol-2-yl)-1,8-naphthyridin-4(1H)-one] | 200
11 | CCn1c(N)c(-c2ncc[nH]2)c(=O)c2ccc(C#C[C@](C)(O)COC)nc21 [Compound 29, 2-Amino-1-ethyl-7-((3S)-3-hydroxy-4-methoxy-3-methyl-but-1-ynyl)-3-(1H-imidazol-2-yl)-1,8-naphthyridin-4(1H)-one] | 145

Second part, the molecule after the results:

Row | IC50 [nM] | SMILES
12 | 16 | CCn1c(N)c(-c2ncc[nH]2)c(=O)c2ccc(C#CC(C)(O)c3ccccc3F)nc21 (racemic) [Compound 9, 2-Amino-1-ethyl-7-[3-(2-fluorophenyl)-3-hydroxybut-1-yn-1-yl]-3-(1H-imidazol-2-yl)-1,8-naphthyridin-4(1H)-one]
13 | 119 | CCn1c(N)c(-c2ncc[nH]2)c(=O)c2ccc(C#CC(C)(O)CC)nc21 (racemic) [Compound 16, 2-Amino-1-ethyl-7-(3-hydroxy-3-methylpent-1-yn-1-yl)-3-(1H-imidazol-2-yl)-1,8-naphthyridin-4(1H)-one]
14 | 13 | CCn1c(N)c(-c2ncc[nH]2)c(=O)c2ccc(C#CC(C)(O)c3ccccc3)nc21 (racemic) [Compound 17, 2-Amino-1-ethyl-7-(3-hydroxy-3-phenylbut-1-yn-1-yl)-3-(1H-imidazol-2-yl)-1,8-naphthyridin-4(1H)-one]
15 | 36 | CCn1c(N)c(-c2ncc[nH]2)c(=O)c2ccc(C#CC(C)(O)c3cccc(F)c3)nc21 (racemic) [Compound 18, 2-Amino-1-ethyl-7-[3-(3-fluorophenyl)-3-hydroxybut-1-yn-1-yl]-3-(1H-imidazol-2-yl)-1,8-naphthyridin-4(1H)-one]
16 | 24 | CCn1c(N)c(-c2ncc[nH]2)c(=O)c2ccc(C#CC(C)(O)c3cccs3)nc21 (racemic) [Compound 21, 2-Amino-1-ethyl-7-[3-hydroxy-3-(thiophen-2-yl)but-1-yn-1-yl]-3-(1H-imidazol-2-yl)-1,8-naphthyridin-4(1H)-one]
17 | 38 | CCn1c(N)c(-c2ncc[nH]2)c(=O)c2ccc(C#CC(C)O)nc21 (racemic) [Compound 22, 2-Amino-1-ethyl-7-(3-hydroxybut-1-yn-1-yl)-3-(1H-imidazol-2-yl)-1,8-naphthyridin-4(1H)-one]
18 | 19 | CCC(O)C#Cc1ccc2c(=O)c(-c3ncc[nH]3)c(N)n(CC)c2n1 (racemic) [Compound 23, 2-Amino-1-ethyl-7-(3-hydroxypent-1-yn-1-yl)-3-(1H-imidazol-2-yl)-1,8-naphthyridin-4(1H)-one]
19 | 85 | CCCC(O)C#Cc1ccc2c(=O)c(-c3ncc[nH]3)c(N)n(CC)c2n1 (racemic) [Compound 24, 2-Amino-1-ethyl-7-(3-hydroxyhex-1-yn-1-yl)-3-(1H-imidazol-2-yl)-1,8-naphthyridin-4(1H)-one]
20 | 303 | CCn1c(N)c(-c2ncc[nH]2)c(=O)c2ccc(C#CC(O)C(C)C)nc21 (racemic) [Compound 25, 2-Amino-1-ethyl-7-(3-hydroxy-4-methylpent-1-yn-1-yl)-3-(1H-imidazol-2-yl)-1,8-naphthyridin-4(1H)-one]
21 | 120 | CCn1c(N)c(-c2ncc[nH]2)c(=O)c2ccc(C#CC(O)c3ccccc3)nc21 (racemic) [Compound 26, 2-Amino-1-ethyl-7-(3-hydroxy-3-phenylprop-1-yn-1-yl)-3-(1H-imidazol-2-yl)-1,8-naphthyridin-4(1H)-one]
22 | 73 | CCn1c(N)c(-c2ncc[nH]2)c(=O)c2ccc(-c3ccc(O)c(Cl)c3)nc21 [Compound 8, 2-Amino-7-(3-chloro-4-hydroxyphenyl)-1-ethyl-3-(1H-imidazol-2-yl)-1,8-naphthyridin-4(1H)-one]
23 | 27 | CCn1c(N)c(-c2ncc[nH]2)c(=O)c2ccc(C#CC(C)(C)O)nc21 [Compound 15, 2-Amino-1-ethyl-7-(3-hydroxy-3-methylbut-1-yn-1-yl)-3-(1H-imidazol-2-yl)-1,8-naphthyridin-4(1H)-one]
24 | 47 | CCn1c(N)c(-c2ncc[nH]2)c(=O)c2ccc(C#C[C@@](C)(O)CO)nc21 [Compound 27, 2-Amino-7-((3R)3,4-dihydroxy-3-methyl-but-1-ynyl)-1-ethyl-3-(1H-imidazol-2-yl)-1,8-naphthyridin-4(1H)-one]
25 | 153 | CCn1c(N)c(-c2ncc[nH]2)c(=O)c2ccc(C#C[C@](C)(O)CO)nc21 [Compound 28, 2-Amino-7-((3S)3,4-dihydroxy-3-methyl-but-1-ynyl)-1-ethyl-3-(1H-imidazol-2-yl)-1,8-naphthyridin-4(1H)-one]

Each molecule was assayed against T1, VEGFR-3 (assay: Ex vivo assay: VEGFR-3 autophosphorylation in HEK cells incubated with plasma of mice dosed p.o.). Conditions: HEK293, mouse; 3 h after single oral administration of 30 mg/kg to male Balb/c mice; transfected HEK cells incubated with plasma (10%); read-out: Ex vivo inhibition (%) At the time.
Design: species or system male Balb/c mice
Procedure: Protocol for administration of the products to the mice:
The products are prepared in a mortar with 0.5% Tween 80 and 0.6% methylcellulose qs final volume. The suspensions are administered by gavage (10 ml/kg) to male Balb/c mice 8 to 15 weeks old. Three hours or 6 hours after single oral administrations of 30 mg/kg, animals were anaesthetized with pentobarbital and blood samples (400 μL) were collected from cava vein and transferred into glass tubes containing lithium heparin. After centrifugation (1500-2000 g for 10 minutes), plasma samples were frozen at a temperature close to −20° C. until analysis.
In order to detect the ex vivo activity of the products in the plasmas, we have used the autophosphorylation assay in HEK cells described earlier. For this purpose, transfected cells were incubated with plasma (10%) instead of compounds. Results are expressed as percent of inhibition of VEGFR-3 autophosphorylation in comparison to untreated cells (maximum autophosphorylation) and to untransfected cells (background).
Results are expressed as a percentage of inhibition of VEGFR-3 auto-phosphorylation of in HEK cells, in presence of a plasma sample collected (at a time), after per os (p.o.) administration of compounds. In order to evaluate the increase of this activity for compounds of the invention, a comparison with compounds of the prior art (WO 2009/007535) and subjected to the same measurement is made in table 3.

Row | inhibition at 30 mg/kg [%] | SMILES
26 | 51 | CCn1c(N)c(-c2ncc[nH]2)c(=O)c2ccc(C#CC(C)(O)CO)nc21 (racemic) [Compound 3, 2-Amino-7-(3,4-dihydroxy-3-methyl-but-1-ynyl)-1-ethyl-3-(1H-imidazol-2-yl)-1H-[1,8]naphthyridin-4-one]
27 | 48 | CCn1c(N)c(-c2ncc[nH]2)c(=O)c2ccc(C#CC(C)(O)CC)nc21 (racemic) [Compound 16, 2-Amino-1-ethyl-7-(3-hydroxy-3-methylpent-1-yn-1-yl)-3-(1H-imidazol-2-yl)-1,8-naphthyridin-4(1H)-one]

Same assay, conditions: HEK293, mouse; 6 h after single oral administration of 30 mg/kg to male Balb/c mice; transfected HEK cells incubated with plasma (10%); read-out: Ex vivo inhibition (%) At the time

Row | inhibition at 30 mg/kg [%] | SMILES
28 | 37 | CCn1c(N)c(-c2ncc[nH]2)c(=O)c2ccc(C#CC(C)(O)c3ccccc3)nc21 (racemic) [Compound 17, 2-Amino-1-ethyl-7-(3-hydroxy-3-phenylbut-1-yn-1-yl)-3-(1H-imidazol-2-yl)-1,8-naphthyridin-4(1H)-one]
29 | 26 | CCn1c(N)c(-c2ncc[nH]2)c(=O)c2ccc(C#CC(C)O)nc21 (racemic) [Compound 22, 2-Amino-1-ethyl-7-(3-hydroxybut-1-yn-1-yl)-3-(1H-imidazol-2-yl)-1,8-naphthyridin-4(1H)-one]
30 | 83 | CCn1c(N)c(-c2ncc[nH]2)c(=O)c2ccc(C#C[C@@](C)(O)COC)nc21 [Compound 1, 2-Amino-1-ethyl-7-((3R)-3-hydroxy-4-methoxy-3-methyl-but-1-ynyl)-3-(1H-imidazol-2-yl)-1H-[1,8]naphthyridin-4-one]
